For three molecules, IC50 results are on record in ChEMBL document CHEMBL3879898, “Substituted pyrazolyl compounds for the treatment of inflammationantiinflammatory agents; rheumatic diseases; anticancer agents” (2007).

This test addresses T1, Inhibitor of nuclear factor kappa-B kinase subunit beta (Homo sapiens, UniProt O14920).
T1 sequence (O14920 whole entry): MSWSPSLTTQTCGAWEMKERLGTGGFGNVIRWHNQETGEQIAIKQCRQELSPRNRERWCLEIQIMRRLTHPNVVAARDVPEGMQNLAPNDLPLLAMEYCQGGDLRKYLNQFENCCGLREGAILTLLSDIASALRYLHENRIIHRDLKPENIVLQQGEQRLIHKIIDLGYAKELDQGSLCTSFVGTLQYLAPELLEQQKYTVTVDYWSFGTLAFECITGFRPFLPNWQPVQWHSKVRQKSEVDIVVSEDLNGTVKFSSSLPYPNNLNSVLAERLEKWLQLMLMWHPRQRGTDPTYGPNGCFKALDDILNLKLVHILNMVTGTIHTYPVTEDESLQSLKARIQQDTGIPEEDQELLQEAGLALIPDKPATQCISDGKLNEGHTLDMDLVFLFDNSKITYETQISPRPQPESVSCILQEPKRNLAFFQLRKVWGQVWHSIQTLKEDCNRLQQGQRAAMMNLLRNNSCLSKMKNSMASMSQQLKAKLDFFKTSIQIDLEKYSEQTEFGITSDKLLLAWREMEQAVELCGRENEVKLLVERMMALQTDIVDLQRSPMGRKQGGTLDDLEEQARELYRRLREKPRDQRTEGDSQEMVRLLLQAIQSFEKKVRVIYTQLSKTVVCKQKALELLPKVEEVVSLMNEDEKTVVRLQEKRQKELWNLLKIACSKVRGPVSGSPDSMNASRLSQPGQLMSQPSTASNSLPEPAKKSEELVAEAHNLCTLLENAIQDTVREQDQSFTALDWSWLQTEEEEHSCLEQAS
Briefly: Inhibition of human recombinant C-terminal FLAG-epitope-tagged IKK2 expressed in baculovirus infected insect cells using biotinylated IkappaBalpha peptide as substrate in presence of [gamma-33P]-ATP after 30 mins by resin-based scintillation counting method.
Usually IC50 stands for the midpoint of a concentration-inhibition curve. `CC(=O)N1Cc2c(C(N)=O)nn(-c3ccc4c(c3)OCO4)c2-c2cc(NC(=O)c3cccnc3Cl)ccc21`: the IC50 is less than 1 µM.
For `NC(=O)c1nn(-c2ccc3c(c2)OCO3)c2c1COc1ccc(NC(=O)c3cccnc3Cl)cc1-2`, the half-maximal inhibitory concentration (IC50) was no more than 1 µM.
In the case of `CC(=O)N1Cc2c(C(N)=O)nn(-c3ccc(F)cc3)c2-c2cc(NC(=O)c3cccnc3Cl)ccc21`, the half-inhibitory concentration (IC50) is less than 1 µM.
